From US20110071148A1, “COMPOUNDS AS THE ESTROGEN RELATED RECEPTORS MODULATORS AND THE USES THEREOF” (Guangzhou Institute of Biomedicine and Health, Chinese …, priority 2008, published 2011)

What was measured:
[1] = Oral glucose tolerance test in high-fat-diet mice; format: in vivo, C57BL/J6 mice; settings: compared to rosiglitazone 10 mg/kg/day
Protocol: Seven weeks old male C57BL/J6 mice were either fed chow diet or a high-fat-diet with 60% calories from lard for 10 weeks. Compounds were administered to animals by gavage for two weeks at different doses. Six groups of animals (n=5) were administered with either vehicle, 10 mg/kg/day rosiglitazone, 0.5 mg/kg/day DK1, 5 mg/kg/day DK1, 0.5 mg/kg/day DK3, or 5 mg/kg/day DK3. Animals were then orally fed glucose. Blood samples were withdrawn at time 0, 15, 30, 60 and 120 min. Blood glucose level was measured by monitor (Accu-chek Advantage, Roche). The changes in blood glucose level were plotted against time and the areas under the curve were calculated for the different groups.

[2] = molecular target: T1, GAL-hERRα (human ERRalpha ligand binding domain) (Homo sapiens, UniProt P11474); assay: GAL4-hERRα ligand binding domain luciferase reporter assay (UASgx4-TK-Luc with CMV-PGC-1α) in HeLa cells; format: cell-based; settings: for expression of reporter genes modulated by ERRα: HeLa cell
T1 construct: expressed in transfected cells; host or cells: HeLa cells, transient lipofection
Protocol: To test the effect of the compounds on ERRα and other nuclear hormone receptors, HeLa cells were transiently transfected with expression vectors for the receptors along with appropriate reporter constructs according to methods known in the art. Suitable reporter gene constructs are well known to skilled workers in the fields of biochemistry and molecular biology. Other vectors known in the art can be used in the methods of the present invention.
HeLa cells for the activation assays were grown in Dulbecco's modified Eagle's medium supplemented with 10% resin charcoal-stripped fetal bovine serum at 37° C. in 5% CO2. One day prior to transfection, cells were plated to 50-80% confluence to using phenol red free DMEM-FBS. The cells were transiently transfected by lipofection but other methods of transfection of DNA into cells can be utilized without deviating from the spirit of the invention. Luciferase reporter construct UASgx4-TK-Luc and cytomegalovirus-driven expression vector p-GAL, GAL-hERRα, GAL-L-hERRβ or Gal-mERRγ were added with CMV-PGC-1α. The cells were treated for approximately 24 hours with phenol red free DMEM-FBS containing 0.01% DMSO (control) or 0.01% DMSO with increasing concentrations of DK compounds.

[3] = test system: PGC1α-promoter reporter gene driven by ERRα; assay: PGC1α-promoter luciferase reporter assay driven by ERRα in HeLa cells; format: cell-based, human; settings: about 24 hours, increasing concentrations, FIG. 4
From the text: HeLa were transiently transfected with the pGL3-promoter (Promega) derivative pGL3-PGC1α-promoter and expression vector for ERRα. The Renilla-Luciferase pRL-CMV Vector (Promega) was included as a control for transfection efficiency. The full length human ERRα was cloned into the expression vector pCMV. The pGL3-PGC1α-promoter was generated by cloning an insert derived from a PCR reaction using human genomic DNA as template and primers based on the 2.6 kbp upstream sequence of the PGC1α transcriptional start site.
HeLa cells for the activation assays were grown in Dulbecco's modified Eagle's medium supplemented with 10% fetal bovine serum at 37° C. in 5% CO2. One day prior to transfection, cells were plated to 50-80% confluence using DMEM-FBS. The cells were transiently transfected by lipofection but other methods of transfection of DNA into cells can be utilized without deviating from the spirit of the invention. Luciferase reporter construct pGL3-PGC1α-promoter and cytomegalovirus-driven expression vector pCMV or pCMV -hERRα were added. The cells were treated for approximately 24 hours with DMEM-FBS containing 0.01% DMSO (control) or 0.01% DMSO with increasing concentrations of DK compounds.

[4] = Liver weight and fatty liver in high-fat-diet mice; format: in vivo, C57BL/J6 mice; settings: for liver weight: compared to rosiglitazone 10 mg/kg/d
Protocol: Seven weeks old male C57BL/J6 mice were either fed chow diet or a high-fat-diet with 60% calories from lard for 10 weeks. Compounds were administered to animals by gavage for two weeks at different doses. Six groups of animals (n=5) were administered with either vehicle, 10 mg/kg/day rosiglitazone, 0.5 mg/kg/day DK1, 5 mg/kg/day DK1, 0.5 mg/kg/day DK3, or 5 mg/kg/day DK3. Total body weight and livers wet weight from animals were measured. Liver samples to from animals were prepared by histological methods.

[5] = 0.5 mg/kg/day by gavage for two weeks
[6] = 5 mg/kg/day by gavage for two weeks

T1 sequence (P11474 193-421 limits assumed): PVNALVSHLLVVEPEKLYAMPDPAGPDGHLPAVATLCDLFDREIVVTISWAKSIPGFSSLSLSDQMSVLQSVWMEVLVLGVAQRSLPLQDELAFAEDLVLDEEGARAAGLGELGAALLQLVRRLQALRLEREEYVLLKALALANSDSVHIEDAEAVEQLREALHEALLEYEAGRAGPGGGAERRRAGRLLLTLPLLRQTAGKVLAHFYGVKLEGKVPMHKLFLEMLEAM
T1 sequence (P04386 1-147 partner limits assumed): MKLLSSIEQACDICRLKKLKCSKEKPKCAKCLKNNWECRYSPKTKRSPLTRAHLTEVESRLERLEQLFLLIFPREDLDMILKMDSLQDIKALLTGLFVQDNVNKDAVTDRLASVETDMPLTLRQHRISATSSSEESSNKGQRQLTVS
T1 sequence (O70343 whole entry partner, the tested form may be a part): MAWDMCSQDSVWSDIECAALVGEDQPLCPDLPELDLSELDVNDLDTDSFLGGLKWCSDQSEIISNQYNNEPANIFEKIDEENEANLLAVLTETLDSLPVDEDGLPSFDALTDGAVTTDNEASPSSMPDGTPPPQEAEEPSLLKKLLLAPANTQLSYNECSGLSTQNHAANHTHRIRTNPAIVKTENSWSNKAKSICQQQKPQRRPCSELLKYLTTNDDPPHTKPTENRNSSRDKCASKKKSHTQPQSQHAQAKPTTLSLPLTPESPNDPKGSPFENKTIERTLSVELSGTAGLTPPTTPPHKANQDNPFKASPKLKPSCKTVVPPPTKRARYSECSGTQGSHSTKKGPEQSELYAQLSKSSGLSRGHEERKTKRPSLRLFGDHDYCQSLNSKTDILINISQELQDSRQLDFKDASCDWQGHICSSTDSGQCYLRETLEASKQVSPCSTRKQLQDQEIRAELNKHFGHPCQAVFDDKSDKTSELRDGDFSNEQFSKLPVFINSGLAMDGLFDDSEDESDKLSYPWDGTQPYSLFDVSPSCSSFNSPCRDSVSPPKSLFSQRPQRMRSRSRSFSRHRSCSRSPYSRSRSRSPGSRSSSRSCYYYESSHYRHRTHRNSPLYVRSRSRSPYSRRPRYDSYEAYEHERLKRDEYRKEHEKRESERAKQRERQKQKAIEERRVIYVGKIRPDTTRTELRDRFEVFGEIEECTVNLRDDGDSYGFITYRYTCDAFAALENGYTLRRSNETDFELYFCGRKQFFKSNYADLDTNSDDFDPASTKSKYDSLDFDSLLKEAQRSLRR

Row | expression of reporter genes modulated by ERRα [2] | SMILES | area under the curve of the oral glucose tolerance test [1, 5] | area under the curve of the oral glucose tolerance test [1, 6] | reversal of the suppressive effect of ERRα specific inverse agonist XCT-790 ([2]; HeLa cells, FIG. 2) | activity of GAL-hERRα on reporter construct UASgx4-TK-Luc ([2]; HeLa cells, in the presence of CMV-PGC-1α, increasing concentrations) | PGC1α-promoter reporter gene driven by ERRα [3] | liver weight [4, 5] | liver weight [4, 6] | extent of fatty liver induced by high-fat-diet ([4]; gavage for two weeks, histology, FIGS. 7 and 8)
1 | effectively enhance | COc1ccc2c(=O)n(C)c(-c3ccc(F)cc3)nc2c1 [Compound 3, 2-(4-fluorophenyl)-7-methoxy-3-methylquinazolin-4(3H)-one] |  |  |  |  |  |  |  | 
2 | effectively enhance | COc1ccc2c(=O)n(C)c(-c3ccc(Br)cc3)nc2c1 [Compound 4, 2-(4-bromophenyl)-7-methoxy-3-methylquinazolin-4(3H)-one] |  |  |  |  |  |  |  | 

Row | SMILES | expression of reporter genes modulated by ERRα [2] | area under the curve of the oral glucose tolerance test [1, 5] | area under the curve of the oral glucose tolerance test [1, 6] | reversal of the suppressive effect of ERRα specific inverse agonist XCT-790 ([2]; HeLa cells, FIG. 2) | activity of GAL-hERRα on reporter construct UASgx4-TK-Luc ([2]; HeLa cells, in the presence of CMV-PGC-1α, increasing concentrations) | PGC1α-promoter reporter gene driven by ERRα [3] | liver weight [4, 5] | liver weight [4, 6] | extent of fatty liver induced by high-fat-diet ([4]; gavage for two weeks, histology, FIGS. 7 and 8)
3 | COc1ccc2c(=O)n(C)c(-c3ccccc3)nc2c1 [Compound 1, 7-methoxy-3-methyl-2-phenylquinazolin-4(3H)-one] | effectively enhance | reduced | reduced | dose-dependently reverses | dose-dependently enhances | dose-dependent enhancement | did not increase | did not increase | reduce the extent of fatty liver
